Source: patent publication US12404283B2, “c-MYC mRNA translation modulators and uses thereof in the treatment of cancer” (Anima Biotech Inc., priority 2022, dated 2025)

Tested on: c-Myc
Assay: c-Myc immunofluorescence assay
Assay type: cell-based, human
Settings: A549 cells, 24 hours treatment, anti-c-Myc immunofluorescence
Procedure, shortened: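 High-content imaging (20×) of PFA-fixed A549 cells immunostained for c-Myc with DAPI nuclei, after 24 h compound treatment at increasing concentrations. Per-cell c-Myc signal in identified cell regions was plotted against dose and fitted by logistic regression to give EC50.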

Row | Structure (SMILES) | Myc Efficacy (−LogEC50)
1 | CCN(CC)CCCNC(=O)c1ccc2c(c1)sc1nc(-c3ccc(CN)cc3)nn12 [compound 348, 2-(4-(aminomethyl)phenyl)-N-(3-(diethylamino)propyl)benzo [4,5]thiazolo[3,2-b][1,2,4]triazole-6-carboxamide] | ++ (++ ≥5 and <6)
2 | CCNCCCNC(=O)c1ccc2c(c1)sc1nc(-c3ccc(C(=O)NC)cc3F)cn12 [compound 362, N-(3-(ethylamino)propyl)-2-(2-fluoro-4-(methylcarbamoyl)phenyl) benzo[d]limidazo[2,1-b]thiazole-7-carboxamide] | ++ (++ ≥5 and <6)
3 | CNC(=O)c1ccc(-c2cn3c(n2)sc2cc(C(=O)NC4CCNCC4)ccc23)c(F)c1 [compound 363, 2-(2-fluoro-4-(methylcarbamoyl)phenyl)-N-(piperidin-4-yl)benzo[d]imidazo[2,1-b]thiazole-7-carboxamide] | ++ (++ ≥5 and <6)
4 | CNC(=O)c1ccc(-c2cn3c(n2)sc2cc(NC(=O)C4CCNCC4)ccc23)c(F)c1 [compound 364, N-(2-(2-fluoro-4-(methylcarbamoyl)phenyl)benzo[d]imidazo[2,1-b]thiazol-7-yl)piperidine-4-carboxamide] | ++ (++ ≥5 and <6)
5 | CCN(CC)CCCC(=O)Nc1ccc2c(c1)sc1nc(-c3ccc(C(=O)NC)cc3F)cn12 [compound 365, 4-(7-(4-(diethylamino)butanamido)benzo[d]imidazo[2,1-b]thiazol-2-yl)-3-fluoro-N-methylbenzamide] | ++ (++ ≥5 and <6)
6 | O=C(NCCCN1CCCCC1)c1ccc2c(c1)sc1nc(-c3ccc(CNC4CC4)cc3F)cn12 [compound 368, 2-(4-((cyclopropylamino)methyl)-2-fluorophenyl)-N-(3-(piperidin-1-yl)propyl)benzo[d]imidazo [2,1-b]thiazole-7-carboxamide] | +++ (+++ ≥6)
7 | NCc1ccc(-c2cn3c(n2)sc2cc(C(=O)NCCCN4CCCCC4)ccc23)c(Cl)c1 [compound 369, 2-(4-(aminomethyl)-2-chlorophenyl)-N-(3-(piperidin-1-yl)propyl)benzo[d]imidazo [2,1-b]thiazole-7-carboxamide] | +++ (+++ ≥6)
8 | NCc1ccc(-c2cn3c(n2)sc2cc(C(=O)NCCCN4CCCCC4)ccc23)c(C2CC2)c1 [compound 370, 2-(4-(aminomethyl)-2-cyclopropylphenyl)-N-(3-(piperidin-1-yl)propyl)benzo[d]imidazo [2,1-b]thiazole-7-carboxamide] | +++ (+++ ≥6)
9 | NCc1ccc(-c2cn3c(n2)sc2cc(C(=O)NCCCN4CCCCC4)ccc23)c(C(F)F)c1 [compound 371, 2-(4-(aminomethyl)-2-(difluoromethyl)phenyl)-N-(3-(piperidin-1-yl)propyl)benzo[d]imidazo [2,1-b]thiazole-7-carboxamide] | ++ (++ ≥5 and <6)
10 | NCc1ccc(-c2cn3c(n2)sc2cc(C(=O)NCCCN4CCCCC4)ccc23)c(C(F)(F)F)c1 [compound 372, 2-(4-(aminomethyl)-2-(trifluoromethyl)phenyl)-N-(3-(piperidin-1-yl)propyl)benzo[d]imidazo [2,1-b]thiazole-7-carboxamide] | ++ (++ ≥5 and <6)
11 | O=C(NCCCN1CCCCC1)c1ccc2c(c1)sc1nc(-c3ccc(C4CCCN4)cc3)cn12 (stereo not drawn) [compound 373, N-(3-(piperidin-1-yl)propyl)-2-(4-(pyrrolidin-2-yl)phenyl)benzo[d]imidazo [2,1-b]thiazole-7-carboxamide] | +++ (+++ ≥6)
12 | NCc1ccc(-c2cn3c(n2)sc2cc(C(=O)NCCCN4CCCCC4)ccc23)c(F)c1 [compound 374, 2-(4-(aminomethyl)-2-fluorophenyl)-N-(3-(piperidin-1-yl)propyl)benzo[d]imidazo [2,1-b]thiazole-7-carboxamide] | +++ (+++ ≥6)
